Laboratory results taken from ChEMBL document CHEMBL4619722, “Alanine scan-guided synthesis and biological evaluation of analogues of culicinin D, a potent anticancer peptaibol” (Bioorg Med Chem Lett, 2020).
Numbered stars: 1 amine (or outer) side, 2 acyl side, 3 side chain; on linkers, the order of the positions; unused ones are H or OH. Square brackets hold non-standard residues; d marks the D form. Peptide text beside a SMILES is read from it. * marks the point of attachment. ξ: configuration not given here. X1 = CCC(=O)C[C@H](O)C[C@@H](C)C[C@H](N[*:1])C(=O)[*:2]; Nva(5-pentanoyl) = CCCCC(=O)CCC[C@H](N)C(=O)O; NH((S)CH(Me)CH2NHC2H4OH) = C[C@@H](CNCCO)N*; Gly(octyl) = CCCCCCCC[C@H](N)C(=O)O; Nle = CCCC[C@H](N)C(=O)O; Aib = CC(C)(N)C(=O)O; Butyryl = CCCC(=O)*; ξP = O=C(O)C1CCCN1; βAla = NCCC(=O)O

Columns and labels:
Format in all cases: functional, cell-based
SK-BR-3 = assay: Antiproliferative activity against human SKBR3 cells
NCI-H460 = assay: Antiproliferative activity against human NCI-H460 cells
MDA-MB-468 = assay: Antiproliferative activity against human MDA-MB-468 cells
T47D = assay: Antiproliferative activity against human T47D cells

SMILES: CCCC(=O)N1CCC[C@H]1C(=O)N[C@@H](C[C@H](C)C[C@@H](O)CC(=O)CC)C(=O)NC(C)(C)C(=O)NC(C)(C)C(=O)N[C@@H](CC(C)C)C(=O)N[C@@H](CC(C)C)C(=O)NC(C)(C)C(=O)N[C@@H](CC(C)C)C(=O)NCCC(=O)N[C@@H](C)CNCCO (Butyryl-P[X1][Aib][Aib]LL[Aib]L[βAla]-{NH((S)CH(Me)CH2NHC2H4OH)})
- IC50 (SK-BR-3): > 1000 nM
- IC50 (NCI-H460): 496 nM
- IC50 (MDA-MB-468): 90 nM
- IC50 (T47D): 130 nM

SMILES: CCCCCCCC[C@H](NC(=O)C(C)(C)NC(=O)C(C)(C)NC(=O)[C@H](C[C@H](C)C[C@@H](O)CC(=O)CC)NC(=O)[C@@H]1CCCN1C(=O)CCC)C(=O)N[C@@H](CC(C)C)C(=O)NC(C)(C)C(=O)N[C@@H](CC(C)C)C(=O)NCCC(=O)N[C@@H](C)CNCCO (Butyryl-P[X1][Aib][Aib][Gly(octyl)]L[Aib]L[βAla]-{NH((S)CH(Me)CH2NHC2H4OH)})
- IC50 (SK-BR-3): 25 nM
- IC50 (NCI-H460): 8 nM
- IC50 (MDA-MB-468): 4 nM
- IC50 (T47D): 3 nM

SMILES: CCCCCCCC[C@H](NC(=O)[C@H](C)NC(=O)C(C)(C)NC(=O)[C@H](CCCC(=O)CCCC)NC(=O)C1CCCN1C(=O)CCC)C(=O)N[C@@H](CC(C)C)C(=O)NC(C)(C)C(=O)N[C@@H](CC(C)C)C(=O)NCCC(=O)N[C@@H](C)CNCCO (stereo partly drawn) (Butyryl-[ξP][Nva(5-pentanoyl)][Aib]A[Gly(octyl)]L[Aib]L[βAla]-{NH((S)CH(Me)CH2NHC2H4OH)})
- IC50 (SK-BR-3): 24 nM
- IC50 (NCI-H460): 20 nM
- IC50 (MDA-MB-468): 21 nM
- IC50 (T47D): 27 nM

SMILES: CCCCCCCC[C@H](NC(=O)C(C)(C)NC(=O)C(C)(C)NC(=O)[C@H](CCCC(=O)CCCC)NC(=O)C1CCCN1C(=O)CCC)C(=O)N[C@@H](C)C(=O)NC(C)(C)C(=O)N[C@@H](CC(C)C)C(=O)NCCC(=O)N[C@@H](C)CNCCO (stereo partly drawn) (Butyryl-[ξP][Nva(5-pentanoyl)][Aib][Aib][Gly(octyl)]A[Aib]L[βAla]-{NH((S)CH(Me)CH2NHC2H4OH)})
- IC50 (SK-BR-3): 130 nM
- IC50 (NCI-H460): 103 nM
- IC50 (MDA-MB-468): 66 nM
- IC50 (T47D): 51 nM

SMILES: CCCCCCCC[C@H](NC(=O)C(C)(C)NC(=O)C(C)(C)NC(=O)[C@H](CCCC(=O)CCCC)NC(=O)C1CCCN1C(=O)CCC)C(=O)N[C@@H](CC(C)C)C(=O)NC(C)(C)C(=O)N[C@@H](CC(C)C)C(=O)NCCC(=O)N[C@@H](C)CNCCO (stereo partly drawn) (Butyryl-[ξP][Nva(5-pentanoyl)][Aib][Aib][Gly(octyl)]L[Aib]L[βAla]-{NH((S)CH(Me)CH2NHC2H4OH)})
- IC50 (SK-BR-3): 47 nM
- IC50 (NCI-H460): 18 nM
- IC50 (MDA-MB-468): 20 nM
- IC50 (T47D): 11 nM

SMILES: CCCCCCCC[C@H](NC(=O)C(C)(C)NC(=O)C(C)(C)NC(=O)[C@H](CS)NC(=O)[C@@H]1CCCN1C(=O)CCC)C(=O)N[C@@H](CC(C)C)C(=O)NC(C)(C)C(=O)N[C@@H](CC(C)C)C(=O)NCCC(=O)N[C@@H](C)CNCCO (Butyryl-PC[Aib][Aib][Gly(octyl)]L[Aib]L[βAla]-{NH((S)CH(Me)CH2NHC2H4OH)})
- IC50 (SK-BR-3): > 1000 nM
- IC50 (NCI-H460): 249 nM
- IC50 (MDA-MB-468): 262 nM
- IC50 (T47D): 166 nM

SMILES: CCCC[C@H](NC(=O)C(C)(C)NC(=O)C(C)(C)NC(=O)[C@H](C[C@H](C)C[C@@H](O)CC(=O)CC)NC(=O)[C@@H]1CCCN1C(=O)CCC)C(=O)N[C@@H](CC(C)C)C(=O)NC(C)(C)C(=O)N[C@@H](CC(C)C)C(=O)NCCC(=O)N[C@@H](C)CNCCO (Butyryl-P[X1][Aib][Aib][Nle]L[Aib]L[βAla]-{NH((S)CH(Me)CH2NHC2H4OH)})
- IC50 (SK-BR-3): > 1000 nM
- IC50 (NCI-H460): > 500 nM
- IC50 (MDA-MB-468): 90 nM
- IC50 (T47D): 124 nM

SMILES: CCCCCCCC[C@H](NC(=O)C(C)(C)NC(=O)C(C)(C)NC(=O)[C@H](Cc1ccc(O)cc1)NC(=O)[C@@H]1CCCN1C(=O)CCC)C(=O)N[C@@H](CC(C)C)C(=O)NC(C)(C)C(=O)N[C@@H](CC(C)C)C(=O)NCCC(=O)N[C@@H](C)CNCCO (Butyryl-PY[Aib][Aib][Gly(octyl)]L[Aib]L[βAla]-{NH((S)CH(Me)CH2NHC2H4OH)})
- IC50 (SK-BR-3): 155 nM
- IC50 (NCI-H460): 71 nM
- IC50 (MDA-MB-468): 35 nM
- IC50 (T47D): 32 nM

SMILES: CCCC(=O)N1CCC[C@H]1C(=O)N[C@@H](C[C@H](C)C[C@@H](O)CC(=O)CC)C(=O)NC(C)(C)C(=O)NC(C)(C)C(=O)N[C@H](C(=O)N[C@@H](CC(C)C)C(=O)NC(C)(C)C(=O)N[C@@H](CC(C)C)C(=O)NCCC(=O)N[C@@H](C)CNCCO)[C@@H](C)CC (Butyryl-P[X1][Aib][Aib]IL[Aib]L[βAla]-{NH((S)CH(Me)CH2NHC2H4OH)})
- IC50 (SK-BR-3): > 1000 nM
- IC50 (NCI-H460): > 500 nM
- IC50 (MDA-MB-468): 142 nM
- IC50 (T47D): 251 nM

SMILES: CCCCCCCC[C@H](NC(=O)C(C)(C)NC(=O)C(C)(C)NC(=O)[C@H](CCCC(=O)CCCC)NC(=O)C1CCCN1C(=O)CCC)C(=O)N[C@@H](CC(C)C)C(=O)N[C@@H](C)C(=O)N[C@@H](C)C(=O)NCCC(=O)N[C@@H](C)CNCCO (stereo partly drawn) (Butyryl-[ξP][Nva(5-pentanoyl)][Aib][Aib][Gly(octyl)]LAA[βAla]-{NH((S)CH(Me)CH2NHC2H4OH)})
- IC50 (SK-BR-3): > 1000 nM
- IC50 (NCI-H460): 96 nM
- IC50 (MDA-MB-468): 314 nM
- IC50 (T47D): 101 nM
